# According to patent US9273075B2, “Prodrugs of 1,4-benzodiazepinone compounds” (BRISTOL-MYERS SQUIBB COMPANY, priority 2012, dated 2016):
# Tests used:
# [1] = tested on: TALL1 Human T-cell acute lymphoblastic leukemia; assay: Human tumor xenograft in mice: TALL1; format: in vivo
# Pat-24 pancreatic cancer = assay: Human tumor xenograft in mice: Pat-24; format: in vivo; conditions: Pat-24 xenograft; PO, QDx15, 10 day-on-2 day-off, 5-10 mg/kg/adm
# [2] = tested on: BT-474 HER2+ breast cancer; assay: Human tumor xenograft in mice: BT-474; format: in vivo; conditions: BT-474 xenograft; PO, QDx15, 10 day-on-2 day-off, 5-10 mg/kg/adm
# Pat-26 pancreatic cancer = assay: Human tumor xenograft in mice: Pat-26; format: in vivo; conditions: Pat-26 xenograft; PO, QDx15, 10 day-on-2 day-off, 5-10 mg/kg/adm
# [3] = tested on: MDA-MB468 TN breast cancer; assay: Human tumor xenograft in mice: MDA-MB468; format: in vivo; conditions: PO, QDx15, 10 day-on-2 day-off, 5-10 mg/kg/adm
# Pat-50 ovarian cancer = assay: Human tumor xenograft in mice: Pat-50; format: in vivo; conditions: Pat-50 xenograft; PO, QDx15, 10 day-on-2 day-off, 5-10 mg/kg/adm
# Pat-34 ovarian cancer = assay: Human tumor xenograft in mice: Pat-34; format: in vivo; conditions: Pat-34 xenograft; PO, QDx15, 10 day-on-2 day-off, 5-10 mg/kg/adm
# [4] = tested on: U-87 glioblastoma multiforme (GBM); assay: Human tumor xenograft in mice: U-87; format: in vivo; conditions: U-87 xenograft; PO, QDx15, 10 day-on-2 day-off, 5-10 mg/kg/adm
# [5] = tested on: MDA-MB157 TN breast cancer; assay: Human tumor xenograft in mice: MDA-MB157; format: in vivo; conditions: PO, QDx15, 10 day-on-2 day-off, 5-10 mg/kg/adm
# [6] = tested on: Calu-6 Non small cell lung cancer; assay: Human tumor xenograft in mice: Calu-6; format: in vivo; conditions: Calu-6 xenograft; PO, QDx15, 10 day-on-2 day-off, 5-10 mg/kg/adm
# HCT116 colon cancer = assay: Human tumor xenograft in mice: HCT116; format: in vivo; conditions: PO, QDx15, 10 day-on-2 day-off, 5-10 mg/kg/adm
# G292 osteogenic sarcoma = assay: Human tumor xenograft in mice: G292; format: in vivo; conditions: PO, QDx15, 10 day-on-2 day-off, 5-10 mg/kg/adm
# [7] = tested on: Pat-21/Abx R TN breast cancer (abx R); assay: Human tumor xenograft in mice: Pat-21/Abx R; format: in vivo; conditions: Pat-21/Abx R xenograft; PO, QDx15, 10 day-on-2 day-off, 5-10 mg/kg/adm
# [8] = tested on: MCF7 estrogen-dependent breast cancer; assay: Human tumor xenograft in mice: MCF7; format: in vivo; conditions: PO, QDx15, 10 day-on-2 day-off, 5-10 mg/kg/adm
# SK-N-AS neuroblastoma = assay: Human tumor xenograft in mice: SK-N-AS; format: in vivo; conditions: PO, QDx15, 10 day-on-2 day-off, 5-10 mg/kg/adm
# [9] = tested on: MCF7i estrogen-independent breast cancer; assay: Human tumor xenograft in mice: MCF7i; format: in vivo; conditions: PO, QDx15, 10 day-on-2 day-off, 5-10 mg/kg/adm
# TALL-1 leukemia = assay: Cell proliferation, TALL-1 leukemia; format: cell-based; conditions: Homo sapiens; TALL-1 leukemia cells
# Procedure: (§1) In in vitro studies, all agents were dissolved in 100% DMSO and serially diluted in media/10% fetal bovine serum. For administration of Notch inhibitors to rodents, two different excipients were used: [1] 94% Labrafil/5% ETOH/1% TW80 or [2] ETOH/TPGS/PEG300 (10:10:80). Notch inhibitors were typically administered orally on a schedule of QD×15, 10 day-on-2 day-off, although other schedules had also been evaluated and shown to be efficacious.
# MDA-MB-468 breast cancer = assay: Cell proliferation, MDA-MB-468 breast cancer; format: cell-based; conditions: Homo sapiens; MDA-MB-468 breast cancer cells
# Procedure: as §1
# [10] = High Throughput Metabolic Stability Panel, mouse liver microsomes
# [11] = High Throughput Metabolic Stability Panel, rat microsomes; conditions: control compound values (expected ranges), 10 minutes
# [12] = High Throughput Metabolic Stability Panel, dog microsomes; conditions: control compound values (expected ranges), 10 minutes
# [13] = High Throughput Metabolic Stability Panel, monkey microsomes; conditions: control compound values (expected ranges), 10 minutes
smiles,measurement,setting,value
"CN1C(=O)[C@@H](NC(=O)[C@H](CCC(F)(F)F)[C@H](CCC(F)(F)F)C(N)=O)N=C(c2ccccc2)c2ccccc21 [Compound A, (2R,3S)—N-((3S)-1-Methyl-2-oxo-5-phenyl-2,3-dihydro-1H-1,4-benzodiazepin-3-yl)-2,3-bis(3,3,3-trifluoropropyl)succinamide]","in vivo efficacy against TALL1, activity as defined by the tumor growth inhibition (TGI)","[1]; FIG. 1, dosed intravenously QD×3, weekly×3, Compound A 3 mg/kg, Example 12 1.5, 3, 6 mg/kg, active = TGI≧50%",active
same,Antitumor Activity (% TGI),"[1]; TALL1 xenograft, PO, QDx15, 10 day-on-2 day-off, 5-10 mg/kg/adm",112 % TGI
same,Antitumor Activity (% TGI),Pat-24 pancreatic cancer,111 % TGI
same,Antitumor Activity (% TGI),[2],96 % TGI
same,Antitumor Activity (% TGI),Pat-26 pancreatic cancer,93 % TGI
same,Antitumor Activity (% TGI),[3],91 % TGI
same,Antitumor Activity (% TGI),Pat-50 ovarian cancer,91 % TGI
same,Antitumor Activity (% TGI),Pat-34 ovarian cancer,89 % TGI
same,Antitumor Activity (% TGI),[4],82 % TGI
same,Antitumor Activity (% TGI),[5],81 % TGI
same,Antitumor Activity (% TGI),[6],81 % TGI
same,Antitumor Activity (% TGI),HCT116 colon cancer,75 % TGI
same,Antitumor Activity (% TGI),G292 osteogenic sarcoma,75 % TGI
same,Antitumor Activity (% TGI),[7],73 % TGI
same,Antitumor Activity (% TGI),[8],73 % TGI
same,Antitumor Activity (% TGI),SK-N-AS neuroblastoma,67 % TGI
same,Antitumor Activity (% TGI),[9],63 % TGI
same,IC50,TALL-1 leukemia,3.9 nM
same,IC50,MDA-MB-468 breast cancer,3.8 nM
same,0.5 μM HLM (% Remaining),"0.5 μM compound, human liver microsomes, ten-minute incubation, NADPH",97%
same,0.5 μM MsLM (% Remaining),"[10]; 0.5 μM compound, mouse liver microsomes, ten-minute incubation, NADPH",91%
CCc1nn(CCCN2CCN(c3cccc(Cl)c3)CC2)c(=O)n1CCOc1ccccc1 [Nefazodone],"Average Percent Remaining ± SD, Human","control compound values (expected ranges), human microsomes, 10 minutes",0.4 ± 0.4%
same,"Average Percent Remaining ± SD, Rat",[11],0.7 ± 0.6%
same,"Average Percent Remaining ± SD, Dog",[12],0.4 ± 0.4%
same,"Average Percent Remaining ± SD, Monkey",[13],0.6 ± 0.5%
same,"Average Percent Remaining ± SD, Mouse","[10]; control compound values (expected ranges), mouse microsomes, 10 minutes",0.4 ± 0.3%
